Several values for one entry are separate records, joined by “and”; a condition that tells them apart may be missing. Identical values can stand only once.

As usually defined, the AC50 is the midpoint of the concentration-response curve, whichever way the signal moves.

For assay [1], the target named is Voltage-dependent L-type calcium channel subunit alpha-1C (Rattus norvegicus, UniProt P22002). The class given is functional.
In assay [2] the target is T1, Muscarinic acetylcholine receptor M2 (Homo sapiens, UniProt P08172).
T1 sequence (P08172 whole entry): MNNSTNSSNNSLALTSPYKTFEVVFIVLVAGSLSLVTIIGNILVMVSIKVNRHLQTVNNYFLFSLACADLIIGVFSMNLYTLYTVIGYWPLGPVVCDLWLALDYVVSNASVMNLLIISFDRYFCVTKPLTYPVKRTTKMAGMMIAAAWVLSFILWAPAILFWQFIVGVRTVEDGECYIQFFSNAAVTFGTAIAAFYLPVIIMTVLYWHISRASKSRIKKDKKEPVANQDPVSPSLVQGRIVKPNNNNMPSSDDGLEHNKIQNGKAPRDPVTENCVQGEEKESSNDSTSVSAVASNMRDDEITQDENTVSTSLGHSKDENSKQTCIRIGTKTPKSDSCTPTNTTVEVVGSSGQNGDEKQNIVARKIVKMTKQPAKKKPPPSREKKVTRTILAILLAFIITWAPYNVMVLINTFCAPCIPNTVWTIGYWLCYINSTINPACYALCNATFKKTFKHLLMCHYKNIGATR
It is filed as functional, cell-based.

Assay [3] concerns the target T2, 5-hydroxytryptamine receptor 1A (Homo sapiens, UniProt P08908).
T2 sequence (P08908 whole entry): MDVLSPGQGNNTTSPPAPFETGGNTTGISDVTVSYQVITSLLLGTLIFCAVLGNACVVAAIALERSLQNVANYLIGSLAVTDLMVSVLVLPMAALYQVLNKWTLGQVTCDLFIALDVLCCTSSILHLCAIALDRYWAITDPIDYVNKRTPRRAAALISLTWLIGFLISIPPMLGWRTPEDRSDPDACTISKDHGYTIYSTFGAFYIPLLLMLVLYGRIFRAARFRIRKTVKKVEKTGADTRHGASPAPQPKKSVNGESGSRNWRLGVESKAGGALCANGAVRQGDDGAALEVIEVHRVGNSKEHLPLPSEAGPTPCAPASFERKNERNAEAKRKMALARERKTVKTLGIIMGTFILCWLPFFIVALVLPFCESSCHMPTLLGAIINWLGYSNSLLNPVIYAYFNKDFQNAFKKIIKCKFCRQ
The class given is functional, cell-based.

Assay [4] has as its target 5-hydroxytryptamine receptor 2B (Homo sapiens, UniProt P41595). The class given is functional, cell-based.
The target in assay [5] is T3, 5-hydroxytryptamine receptor 3A (Homo sapiens, UniProt P46098).
T3 sequence (P46098 whole entry): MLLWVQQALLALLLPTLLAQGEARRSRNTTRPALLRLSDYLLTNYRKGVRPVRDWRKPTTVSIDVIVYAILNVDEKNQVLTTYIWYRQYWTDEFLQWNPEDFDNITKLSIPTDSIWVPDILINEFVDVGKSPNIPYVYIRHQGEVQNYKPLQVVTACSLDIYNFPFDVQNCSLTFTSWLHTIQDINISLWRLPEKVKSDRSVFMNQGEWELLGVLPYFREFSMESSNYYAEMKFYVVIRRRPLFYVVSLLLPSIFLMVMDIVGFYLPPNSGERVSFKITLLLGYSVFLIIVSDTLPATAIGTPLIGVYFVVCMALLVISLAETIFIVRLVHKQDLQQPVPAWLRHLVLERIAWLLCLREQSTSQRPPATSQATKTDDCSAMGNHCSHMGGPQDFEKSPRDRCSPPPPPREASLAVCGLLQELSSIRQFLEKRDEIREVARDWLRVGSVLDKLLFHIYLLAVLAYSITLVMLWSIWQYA
The class given is functional.

For assay [6], the target named is T4, Neuropeptide Y receptor type 1 (Homo sapiens, UniProt P25929).
T4 sequence (P25929 whole entry): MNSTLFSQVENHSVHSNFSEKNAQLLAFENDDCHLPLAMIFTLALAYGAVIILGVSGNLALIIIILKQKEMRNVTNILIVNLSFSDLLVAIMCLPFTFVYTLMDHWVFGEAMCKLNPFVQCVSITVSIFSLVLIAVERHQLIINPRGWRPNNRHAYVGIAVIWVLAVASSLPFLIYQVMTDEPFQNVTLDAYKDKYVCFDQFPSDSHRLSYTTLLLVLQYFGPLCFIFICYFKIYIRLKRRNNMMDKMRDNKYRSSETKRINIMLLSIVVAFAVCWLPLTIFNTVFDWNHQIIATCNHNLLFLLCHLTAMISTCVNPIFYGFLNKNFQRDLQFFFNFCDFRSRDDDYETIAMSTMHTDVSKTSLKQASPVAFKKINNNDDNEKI

Assay [7] deals with Kappa-type opioid receptor (Homo sapiens, UniProt P41145).
Assay [8] deals with T5, Prostaglandin G/H synthase 1 (Rattus norvegicus, UniProt Q63921).
T5 sequence (Q63921 whole entry): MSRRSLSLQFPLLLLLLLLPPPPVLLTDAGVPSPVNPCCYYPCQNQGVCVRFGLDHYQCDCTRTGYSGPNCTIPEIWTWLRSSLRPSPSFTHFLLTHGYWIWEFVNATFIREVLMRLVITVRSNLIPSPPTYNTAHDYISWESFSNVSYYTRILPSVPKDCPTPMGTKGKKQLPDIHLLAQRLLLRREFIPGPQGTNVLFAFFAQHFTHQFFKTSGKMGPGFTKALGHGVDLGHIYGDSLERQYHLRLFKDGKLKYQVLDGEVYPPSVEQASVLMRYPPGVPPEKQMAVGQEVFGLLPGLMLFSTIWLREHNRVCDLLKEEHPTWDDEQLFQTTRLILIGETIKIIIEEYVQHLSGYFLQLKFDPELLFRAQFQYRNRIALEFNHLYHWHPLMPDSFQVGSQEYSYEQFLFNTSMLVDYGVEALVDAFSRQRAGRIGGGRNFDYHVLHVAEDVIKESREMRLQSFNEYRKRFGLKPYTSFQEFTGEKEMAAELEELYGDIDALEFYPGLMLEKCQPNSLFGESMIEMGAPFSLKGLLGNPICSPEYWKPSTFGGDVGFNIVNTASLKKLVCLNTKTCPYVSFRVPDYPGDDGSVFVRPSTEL
It is filed as functional.

In assay [9] the target is Sodium-dependent noradrenaline transporter (Homo sapiens, UniProt P23975).
Assay [10] concerns the target cGMP-inhibited 3',5'-cyclic phosphodiesterase 3A (Homo sapiens, UniProt Q14432). The class given is functional.
Further: assay procedure not described here.

Voltage-dependent L-type calcium channel subunit alpha-1C, sequence (P22002 whole entry): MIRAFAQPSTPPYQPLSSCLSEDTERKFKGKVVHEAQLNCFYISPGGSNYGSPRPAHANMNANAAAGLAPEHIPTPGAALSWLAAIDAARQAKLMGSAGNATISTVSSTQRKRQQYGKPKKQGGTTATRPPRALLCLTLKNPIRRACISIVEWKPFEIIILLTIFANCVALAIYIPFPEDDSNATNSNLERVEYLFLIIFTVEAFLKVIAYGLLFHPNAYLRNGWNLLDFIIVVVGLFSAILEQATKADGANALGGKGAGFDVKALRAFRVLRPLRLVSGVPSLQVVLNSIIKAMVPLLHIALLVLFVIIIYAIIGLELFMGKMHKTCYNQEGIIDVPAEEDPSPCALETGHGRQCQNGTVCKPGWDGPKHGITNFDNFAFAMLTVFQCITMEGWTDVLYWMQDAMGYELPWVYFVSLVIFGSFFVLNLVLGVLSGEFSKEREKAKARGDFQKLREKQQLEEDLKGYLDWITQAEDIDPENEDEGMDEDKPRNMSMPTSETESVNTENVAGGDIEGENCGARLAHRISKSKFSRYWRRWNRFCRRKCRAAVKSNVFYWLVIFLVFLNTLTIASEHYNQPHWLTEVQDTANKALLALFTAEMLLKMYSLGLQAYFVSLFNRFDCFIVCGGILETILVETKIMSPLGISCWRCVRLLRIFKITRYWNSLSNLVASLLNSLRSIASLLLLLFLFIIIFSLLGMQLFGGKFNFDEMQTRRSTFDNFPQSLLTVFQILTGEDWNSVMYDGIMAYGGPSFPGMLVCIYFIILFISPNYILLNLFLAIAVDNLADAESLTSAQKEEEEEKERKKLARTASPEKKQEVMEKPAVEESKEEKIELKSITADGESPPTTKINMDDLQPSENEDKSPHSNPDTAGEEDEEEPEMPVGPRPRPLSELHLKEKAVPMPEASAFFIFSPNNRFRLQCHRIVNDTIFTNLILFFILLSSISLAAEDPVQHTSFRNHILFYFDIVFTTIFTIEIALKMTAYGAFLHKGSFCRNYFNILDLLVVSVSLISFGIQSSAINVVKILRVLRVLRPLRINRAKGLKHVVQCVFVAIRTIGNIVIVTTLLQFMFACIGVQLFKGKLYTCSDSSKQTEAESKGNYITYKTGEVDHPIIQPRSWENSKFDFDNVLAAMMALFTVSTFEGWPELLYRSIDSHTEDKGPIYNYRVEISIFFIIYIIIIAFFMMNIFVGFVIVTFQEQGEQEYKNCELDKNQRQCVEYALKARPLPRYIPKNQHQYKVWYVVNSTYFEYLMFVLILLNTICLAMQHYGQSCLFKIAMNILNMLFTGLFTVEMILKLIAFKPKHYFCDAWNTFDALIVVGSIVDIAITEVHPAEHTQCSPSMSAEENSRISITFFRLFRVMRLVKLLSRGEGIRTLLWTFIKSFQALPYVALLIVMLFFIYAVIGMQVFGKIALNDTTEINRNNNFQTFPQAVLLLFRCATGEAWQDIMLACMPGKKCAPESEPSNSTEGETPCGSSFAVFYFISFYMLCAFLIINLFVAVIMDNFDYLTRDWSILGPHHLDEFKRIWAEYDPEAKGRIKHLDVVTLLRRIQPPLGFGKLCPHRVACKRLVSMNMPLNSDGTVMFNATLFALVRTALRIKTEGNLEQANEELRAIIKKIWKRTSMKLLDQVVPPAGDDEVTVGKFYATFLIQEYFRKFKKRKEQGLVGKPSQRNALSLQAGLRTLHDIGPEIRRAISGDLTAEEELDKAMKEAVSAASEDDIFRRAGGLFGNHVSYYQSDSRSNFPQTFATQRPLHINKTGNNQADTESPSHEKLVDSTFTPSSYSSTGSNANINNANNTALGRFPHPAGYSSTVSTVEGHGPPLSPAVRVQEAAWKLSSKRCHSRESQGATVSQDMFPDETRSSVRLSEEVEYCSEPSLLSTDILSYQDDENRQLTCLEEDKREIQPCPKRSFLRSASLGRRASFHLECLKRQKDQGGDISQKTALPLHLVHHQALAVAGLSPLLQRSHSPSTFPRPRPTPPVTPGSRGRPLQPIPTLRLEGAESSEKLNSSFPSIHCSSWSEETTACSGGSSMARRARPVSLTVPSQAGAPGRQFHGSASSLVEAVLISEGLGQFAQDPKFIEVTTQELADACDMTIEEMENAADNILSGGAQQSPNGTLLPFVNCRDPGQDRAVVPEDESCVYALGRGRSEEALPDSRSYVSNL
5-hydroxytryptamine receptor 2B, sequence (P41595 whole entry): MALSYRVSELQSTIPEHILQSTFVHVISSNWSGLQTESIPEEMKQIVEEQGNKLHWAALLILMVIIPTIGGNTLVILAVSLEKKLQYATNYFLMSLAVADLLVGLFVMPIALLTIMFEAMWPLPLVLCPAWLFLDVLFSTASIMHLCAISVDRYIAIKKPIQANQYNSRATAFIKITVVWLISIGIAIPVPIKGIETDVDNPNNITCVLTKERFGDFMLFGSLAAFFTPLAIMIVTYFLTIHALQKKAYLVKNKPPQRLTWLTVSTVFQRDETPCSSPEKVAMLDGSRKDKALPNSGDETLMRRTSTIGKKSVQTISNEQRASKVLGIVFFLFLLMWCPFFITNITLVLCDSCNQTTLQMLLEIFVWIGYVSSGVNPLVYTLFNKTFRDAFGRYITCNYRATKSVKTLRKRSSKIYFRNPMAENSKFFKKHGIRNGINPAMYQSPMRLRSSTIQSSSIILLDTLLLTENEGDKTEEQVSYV
Sodium-dependent noradrenaline transporter, sequence (P23975 whole entry): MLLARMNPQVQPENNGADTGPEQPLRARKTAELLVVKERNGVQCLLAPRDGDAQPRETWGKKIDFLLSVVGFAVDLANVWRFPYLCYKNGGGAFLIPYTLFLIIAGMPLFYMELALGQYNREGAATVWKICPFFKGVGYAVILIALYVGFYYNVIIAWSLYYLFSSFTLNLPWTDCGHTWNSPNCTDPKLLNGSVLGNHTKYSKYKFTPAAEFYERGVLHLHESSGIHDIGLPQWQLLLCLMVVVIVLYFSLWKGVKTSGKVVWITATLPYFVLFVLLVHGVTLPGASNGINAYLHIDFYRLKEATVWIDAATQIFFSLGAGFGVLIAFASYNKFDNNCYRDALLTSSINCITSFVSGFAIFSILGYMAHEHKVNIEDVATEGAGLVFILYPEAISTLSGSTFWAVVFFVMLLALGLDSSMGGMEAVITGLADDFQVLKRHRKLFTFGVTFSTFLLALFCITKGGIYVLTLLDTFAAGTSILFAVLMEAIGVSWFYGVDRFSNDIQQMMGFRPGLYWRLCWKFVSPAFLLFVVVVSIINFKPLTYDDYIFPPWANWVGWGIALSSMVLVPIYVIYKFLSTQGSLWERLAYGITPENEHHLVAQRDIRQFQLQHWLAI
Kappa-type opioid receptor, sequence (P41145 whole entry): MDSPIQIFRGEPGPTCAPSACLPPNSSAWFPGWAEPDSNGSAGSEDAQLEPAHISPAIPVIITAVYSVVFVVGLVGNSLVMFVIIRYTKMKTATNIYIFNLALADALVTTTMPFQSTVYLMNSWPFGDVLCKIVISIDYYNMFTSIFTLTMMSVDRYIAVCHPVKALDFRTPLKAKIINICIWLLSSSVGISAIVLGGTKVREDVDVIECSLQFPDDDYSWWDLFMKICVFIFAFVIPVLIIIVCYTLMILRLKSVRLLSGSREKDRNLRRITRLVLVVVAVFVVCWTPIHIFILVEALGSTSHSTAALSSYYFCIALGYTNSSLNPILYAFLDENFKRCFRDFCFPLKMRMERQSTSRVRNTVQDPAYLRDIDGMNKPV
cGMP-inhibited 3',5'-cyclic phosphodiesterase 3A, sequence (Q14432 whole entry): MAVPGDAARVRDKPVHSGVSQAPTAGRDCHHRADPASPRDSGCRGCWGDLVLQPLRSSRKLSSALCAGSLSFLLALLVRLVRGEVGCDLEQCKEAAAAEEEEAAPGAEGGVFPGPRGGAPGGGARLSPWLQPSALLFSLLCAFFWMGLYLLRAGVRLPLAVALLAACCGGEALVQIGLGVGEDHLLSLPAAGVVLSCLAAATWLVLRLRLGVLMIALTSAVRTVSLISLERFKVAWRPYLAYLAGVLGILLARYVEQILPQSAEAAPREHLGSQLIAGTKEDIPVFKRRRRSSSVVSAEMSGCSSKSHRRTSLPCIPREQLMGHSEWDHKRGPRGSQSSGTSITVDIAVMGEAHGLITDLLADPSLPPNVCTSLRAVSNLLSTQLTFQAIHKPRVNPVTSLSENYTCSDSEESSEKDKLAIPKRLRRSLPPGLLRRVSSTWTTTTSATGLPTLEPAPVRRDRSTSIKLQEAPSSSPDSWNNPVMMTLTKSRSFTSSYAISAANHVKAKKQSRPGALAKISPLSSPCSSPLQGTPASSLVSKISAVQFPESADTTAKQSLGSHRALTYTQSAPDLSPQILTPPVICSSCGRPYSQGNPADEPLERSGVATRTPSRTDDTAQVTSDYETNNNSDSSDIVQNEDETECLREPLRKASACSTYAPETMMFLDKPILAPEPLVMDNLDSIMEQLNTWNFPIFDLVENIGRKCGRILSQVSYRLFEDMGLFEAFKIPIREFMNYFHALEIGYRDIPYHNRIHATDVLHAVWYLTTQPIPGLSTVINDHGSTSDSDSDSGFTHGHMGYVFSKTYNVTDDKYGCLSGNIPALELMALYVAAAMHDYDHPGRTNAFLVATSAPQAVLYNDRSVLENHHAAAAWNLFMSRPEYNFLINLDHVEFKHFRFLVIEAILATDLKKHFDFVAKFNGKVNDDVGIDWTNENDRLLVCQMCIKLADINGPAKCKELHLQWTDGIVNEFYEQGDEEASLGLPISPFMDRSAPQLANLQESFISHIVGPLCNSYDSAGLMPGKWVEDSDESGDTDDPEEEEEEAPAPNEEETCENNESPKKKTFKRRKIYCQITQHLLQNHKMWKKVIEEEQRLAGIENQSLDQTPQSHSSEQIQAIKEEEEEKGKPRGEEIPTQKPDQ

For `CC1(C)C(C=C(Cl)Cl)C1C(=O)OCc1cccc(Oc2ccccc2)c1` (stereo not given) [PERMETHRIN], the AC50 in [1] was above 10 µM; in assay [2], above 10 µM; in assay [3] it was above 10 µM; in assay [4], above 10 µM; in [5], above 30 µM; in assay [6], above 10 µM. Also, the AC50 was above 10 µM in assay [7], above 10 µM in assay [8], above 10 µM in assay [9] and above 30 µM in assay [10].

Regarding `CC[N+]1(C)CCCC(OC(=O)C(O)(c2ccccc2)c2ccccc2)C1` (stereo not given) [PIPENZOLATE], the AC50 is above 30 µM in assay [1]; 0.023 µM in assay [2]; above 30 µM in [3]; above 30 µM in assay [4]; above 30 µM in assay [5]; above 30 µM in [6]. Besides, the AC50 in assay [7], in [8], in assay [9] and in assay [10] was above 30 µM in each case.

On to `CC(=O)c1ccc2c(c1)N(CCCN1CCC(CCO)CC1)c1ccccc1S2` [PIPERACETAZINE], for which the AC50 was above 30 µM in [1]; 24 µM in [2]; 0.043 µM in assay [3]; 4.7 µM in assay [4]; above 30 µM in assay [5]; above 30 µM in assay [6]. The AC50 in [7] is 4 µM; in assay [8], above 30 µM; in assay [9], 1.8 µM; in assay [10], above 10 µM.

As for `NC(=O)CCC/N=C(\c1ccc(Cl)cc1)c1cc(F)ccc1O` [PROGABIDE], the AC50 was above 10 µM in assay [1]; above 10 µM in [2]; above 10 µM in assay [3]; above 10 µM in assay [4]; above 30 µM in [5]; above 10 µM in assay [6]. The AC50 in assay [7] was above 10 µM; in assay [8] it was above 10 µM; in [9], above 10 µM; in assay [10], above 30 µM.

For `CC(NCCc1ccc(O)cc1)C(O)c1ccc(O)cc1` (stereo not given) [RITODRINE], the AC50 in assay [1] was above 10 µM; in assay [2], above 10 µM; in assay [3] it was above 10 µM; in assay [4], above 30 µM; in assay [5], above 30 µM; in assay [6] it was above 30 µM. Besides, the AC50 was 14.4 µM in [7]; above 30 µM in assay [8]; 23 µM and 37.6 µM in assay [9]; above 30 µM in assay [10].

Consider `[H]/N=C(/N)N[C@H]1[C@H](O)[C@@H](O)[C@H](O[C@@H]2O[C@@H](C)[C@](O)(C=O)[C@H]2O[C@@H]2O[C@@H](CO)[C@H](O)[C@@H](O)[C@@H]2NC)[C@@H](N/C(N)=N\[H])[C@@H]1O` [STREPTOMYCIN], for which the AC50 in assay [1] was above 30 µM; in [2] it was above 30 µM; in assay [3], above 10 µM; in [4], above 30 µM; in assay [5], above 30 µM; in [6], above 30 µM. Moreover, the AC50 in [7], in [8], in assay [9] and in [10] was above 30 µM in each case.

Take `COc1c(O[C@@H]2O[C@H](CO)[C@@H](O)[C@H](O)[C@H]2O)cc2c(c1OC)-c1ccc(SC)c(=O)cc1[C@@H](NC(C)=O)CC2` [THIOCOLCHICOSIDE]: the AC50 in assay [1], in assay [2], in assay [3], in assay [4], in assay [5] and in assay [6] was above 30 µM throughout. Also, the AC50 in assay [7], in [8], in assay [9] and in assay [10] was above 30 µM throughout.

For the compound `CC(C)(C)NC[C@H](O)COc1nsnc1N1CCOCC1` [TIMOLOL], the AC50 was above 30 µM in assay [1]; above 30 µM in [2]; 4.2 µM in [3]; above 30 µM in [4]; above 30 µM in assay [5]; above 30 µM in [6]. Besides, the AC50 in [7], in assay [8], in assay [9] and in [10] was above 30 µM each time.

In the case of `Cc1cccc(N(C)C(=S)Oc2ccc3ccccc3c2)c1` [TOLNAFTATE], the AC50 in assay [1] was 25 µM; in assay [2], above 10 µM; in assay [3] it was above 10 µM; in assay [4], above 10 µM; in assay [5], above 30 µM; in [6] it was above 10 µM. Besides, the AC50 is above 10 µM in assay [7], above 10 µM in assay [8], above 10 µM in assay [9] and above 30 µM in [10].

The record behind these values is ChEMBL document CHEMBL5291721, “A preclinical secondary pharmacology resource illuminates target-adverse drug reaction associations of marketed drugs” (Nat Commun, 2023).
